Patent publication US9493451B2 (Bionomics Limited, priority 2011, dated 2016)

target: T1, Kv1.3 (Homo sapiens, UniProt P22001); assay: Electrophysiology: planar patch-clamp of Kv1.3 currents, IC50 from steady state current amplitude; format: cell-based; details: Kv1.3 electrophysiology, results according to Method D1, read-out: IC50 (Kv1.3 ephys steady state)
T1 construct: expressed in transfected cells; host or cells: CHO (Kv1.3/CHO)
Experimental: The inhibition data shown for the compounds of the list below was calculated using the steady state current amplitude at the end of the depolarising pulse in patch clamp evaluations (as described in the Biology Protocols: 1. Electrophysiology).
Kv1.x currents were measured in Kv1.3/CHO or Kv1.5/CHO cells using a planar electrode version (Nanion Technologies GMBH) of the patch-clamp technique. Whole-cell Kv1.x current transients were evoked by 500 ms depolarising voltage pulses to +40 mV from a holding potential of −80 mV applied at 10 s intervals for Kv1.5 and at 30 s intervals for Kv1.3 to allow adequate time for recovery from inactivation. Cells were continuously bathed in a buffered saline solution containing (mM): 160 NaCl, 4.5 KCl, 2 CaCl2, 1 MgCl2, 5 glucose, 10 HEPES, pH 7.4, 290-310 mOsm·Kg^−1. The internal (pipette) solution contained (mM): 10 NaCl, 70 KF, 75 KCl, 2 MgCl2, 10 HEPES, 10 EGTA, pH 7.2, 290-310 mOsm·Kg^−1. Series resistance compensation (60-80%) was applied to cells in which the peak current amplitude exceeded 2 nA.
Compound Preparation and Potency Assessment
Compounds were initially dissolved in DMSO to 10 mM. After further dilution in DMSO, compounds were finally diluted in bath solution 1/200 (to give a final DMSO concentration of 0.5%) and applied directly to the recording chamber. Compounds were added at increasing concentrations allowing ample time for steady state block to be achieved between each concentration. Each compound was tested at 5-6 different concentrations on 2-3 cells. Compound IC50 values were determined by fitting the average normalised reduction of either the current integral or the steady state current amplitude at the end of the 500 ms depolarising pulse obtained at each compound concentration to the Hill equation. The IC50 data reported herein is based on the steady state calculation.

T1 sequence (P22001 whole entry): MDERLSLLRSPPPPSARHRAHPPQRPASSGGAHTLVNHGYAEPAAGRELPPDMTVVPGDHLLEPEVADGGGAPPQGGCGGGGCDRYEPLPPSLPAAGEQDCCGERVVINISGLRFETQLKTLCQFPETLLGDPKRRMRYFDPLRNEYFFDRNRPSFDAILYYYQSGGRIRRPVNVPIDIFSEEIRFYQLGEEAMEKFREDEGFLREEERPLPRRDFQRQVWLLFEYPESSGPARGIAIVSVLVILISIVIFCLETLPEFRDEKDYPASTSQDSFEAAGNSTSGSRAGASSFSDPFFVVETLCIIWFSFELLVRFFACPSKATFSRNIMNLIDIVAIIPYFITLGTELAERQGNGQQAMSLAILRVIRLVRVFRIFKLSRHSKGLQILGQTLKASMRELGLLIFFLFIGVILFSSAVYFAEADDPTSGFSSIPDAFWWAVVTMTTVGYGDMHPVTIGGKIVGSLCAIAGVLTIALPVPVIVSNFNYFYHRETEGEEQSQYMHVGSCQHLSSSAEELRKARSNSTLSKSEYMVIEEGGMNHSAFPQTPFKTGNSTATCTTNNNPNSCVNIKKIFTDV

Row | Structure (SMILES) | IC50 [nM]
1 | CCS(=O)(=O)c1cccc(C(C2CC2)N(CC(F)(F)c2ccccn2)C(=O)C2CC2c2ccc(F)cc2)c1 (centres unmarked) [Example 191] | 50 to 200
2 | CCS(=O)(=O)c1cccc(C(C2CC2)N(Cc2ccncn2)C(=O)C2CC2c2ccc(F)cc2)c1 (centres unmarked) [Example 192] | 200 to 1000
3 | CCS(=O)(=O)c1cccc(C(C2CC2)N(Cc2ccc(F)cn2)C(=O)C2CC2c2ccc(F)cc2F)c1 (centres unmarked) [Example 193] | 50 to 200
4 | CCS(=O)(=O)c1cccc(C(C2CC2)N(Cc2ccc(F)cn2)C(=O)C2CC2c2ccc(F)cc2F)c1 (centres unmarked) [Example 196] | 50 to 200
5 | CCS(=O)(=O)c1cccc(C(C2CC2)N(Cc2ccc(F)cn2)C(=O)C2CC2c2ccc(F)c(F)c2)c1 (centres unmarked) [Example 197] | 50 to 200
6 | CCS(=O)(=O)c1cccc(C(C2CC2)N(Cc2ccc(F)cn2)C(=O)C2CC2c2cccc(C(F)(F)F)c2)c1 (centres unmarked) [Example 212] | 50 to 200
7 | CCS(=O)(=O)c1cccc(C(C2CC2)N(Cc2cncc(F)c2)C(=O)C2CC2c2ccc(F)cc2)c1 (centres unmarked) [Example 214] | 50 to 200
8 | CCS(=O)(=O)c1cccc(C(C2CC2)N(Cc2ccc(F)cn2)C(=O)C2CC2c2ccc(F)cc2)c1 (centres unmarked) [Example 215] | 50 to 200
9 | CCS(=O)(=O)c1cccc(C(C2CC2)N(Cc2ccccn2)C(=O)C2CC2c2cccc(C(F)(F)F)c2)c1 (centres unmarked) [Example 216] | 50 to 200
10 | CCS(=O)(=O)c1cccc(C(C2CC2)N(Cc2ccccn2)C(=O)C2CC2c2cccc(C(F)(F)F)c2)c1 (centres unmarked) [Example 217] | 50 to 200
11 | CCS(=O)(=O)c1cccc(C(C2CC2)N(Cc2ncccc2F)C(=O)C2CC2c2ccc(F)cc2)c1 (centres unmarked) [Example 218] | 50 to 200
12 | CCS(=O)(=O)c1cccc(C(C2CC2)N(C(=O)C2CC2c2ccc(F)cc2)C2CCC(F)(F)CC2)c1 (centres unmarked) [Example 219] | 50 to 200
13 | CCS(=O)(=O)c1cccc(C(C2CC2)N(C(=O)C2CC2c2ccccc2OC(F)(F)F)C2CCOCC2)c1 (centres unmarked) [Example 220] | 50 to 200
14 | CCS(=O)(=O)c1cccc(C(C2CC2)N(C(=O)C2CC2c2ccccc2OC(F)(F)F)C2CCOCC2)c1 (centres unmarked) [Example 221] | 200 to 1000
15 | CCS(=O)(=O)c1cccc(C(C2CC2)N(Cc2ccc(F)cn2)C(=O)C2CC2c2ccc(OC(F)F)cc2)c1 (centres unmarked) [Example 222] | 50 to 200
16 | CCS(=O)(=O)c1cccc(C(C2CC2)N(Cc2cccnn2)C(=O)C2CC2c2ccc(F)cc2)c1 (centres unmarked) [Example 223] | 50 to 200
17 | CCS(=O)(=O)c1cccc(C(C2CC2)N(Cc2cccnn2)C(=O)C2CC2c2cccc(C(F)(F)F)c2)c1 (centres unmarked) [Example 225] | 200 to 1000
18 | CCS(=O)(=O)c1cccc(C(C2CC2)N(Cc2cccnn2)C(=O)C2CC2c2cccc(C(F)(F)F)c2)c1 (centres unmarked) [Example 226] | 200 to 1000
19 | CCS(=O)(=O)c1ccc(C(C2CC2)N(Cc2ccc(F)cn2)C(=O)C2CC2c2cccc(C(F)(F)F)c2)cc1 (centres unmarked) [Example 227] | 50 to 200
20 | CCS(=O)(=O)c1ccc(C(C2CC2)N(Cc2ccc(F)cn2)C(=O)C2CC2c2cccc(C(F)(F)F)c2)cc1 (centres unmarked) [Example 228] | 50 to 200
21 | CCS(=O)(=O)c1ccc(C(C2CC2)N(Cc2ccc(F)cn2)C(=O)C2CC2c2ccc(F)cc2F)cc1 (centres unmarked) [Example 229] | 50 to 200

Row | Structure (SMILES) | IC50 [nM]
22 | CCS(=O)(=O)c1ccc(C(C2CC2)N(Cc2ccc(F)cn2)C(=O)C2CC2c2ccc(F)cc2F)cc1 (centres unmarked) [Example 230] | 50 to 200
23 | CCS(=O)(=O)c1ccc(C(C2CC2)N(Cc2cccnn2)C(=O)C2CC2c2ccc(F)cc2)cc1 (centres unmarked) [Example 231] | 50 to 200
24 | CCS(=O)(=O)c1ccc(C(C2CC2)N(Cc2ccc(F)cn2)C(=O)C2CC2c2ccc(F)cc2)cc1 (centres unmarked) [Example 232] | 50 to 200
25 | CCS(=O)(=O)c1ccc(C(C2CC2)N(Cc2ccc(F)cn2)C(=O)C2CC2c2ccc(F)cc2)cc1 (centres unmarked) [Example 233] | 50 to 200
26 | CC(C)S(=O)(=O)c1ccc(C(C2CC2)N(Cc2ncccc2F)C(=O)C2CC2c2ccc(F)cc2)cc1 (centres unmarked) [Example 234] | 200 to 1000
27 | CC(C)S(=O)(=O)c1ccc(C(C2CC2)N(Cc2ncccc2F)C(=O)C2CC2c2ccc(F)cc2)cc1 (centres unmarked) [Example 235] | 200 to 1000
28 | CC(C)S(=O)(=O)c1ccc(C(C2CC2)N(Cc2cccnn2)C(=O)C2CC2c2ccc(F)cc2)cc1 (centres unmarked) [Example 236] | 50 to 200
29 | CC(C)S(=O)(=O)c1ccc(C(C2CC2)N(Cc2cccnn2)C(=O)C2CC2c2ccc(F)cc2)cc1 (centres unmarked) [Example 237] | 50 to 200
30 | CC(C)S(=O)(=O)c1ccc(C(C2CC2)N(Cc2ccc(F)cn2)C(=O)C2CC2c2ccc(F)cc2)cc1 (centres unmarked) [Example 238] | 50 to 200
31 | CC(C)S(=O)(=O)c1ccc(C(C2CC2)N(Cc2ccc(F)cn2)C(=O)C2CC2c2ccc(F)cc2)cc1 (centres unmarked) [Example 239] | 200 to 1000
32 | CC(C)S(=O)(=O)c1cccc(C(C2CC2)N(Cc2cccnn2)C(=O)C2CC2c2ccc(F)cc2)c1 (centres unmarked) [Example 240] | 200 to 1000
33 | CC(C)S(=O)(=O)c1cccc(C(C2CC2)N(Cc2cccnn2)C(=O)C2CC2c2ccc(F)cc2)c1 (centres unmarked) [Example 241] | 200 to 1000
34 | CC(C)S(=O)(=O)c1cccc(C(C2CC2)N(Cc2ccc(F)cn2)C(=O)C2CC2c2ccc(F)cc2)c1 (centres unmarked) [Example 242] | 50 to 200
35 | CC(C)S(=O)(=O)c1cccc(C(C2CC2)N(Cc2ccc(F)cn2)C(=O)C2CC2c2ccc(F)cc2)c1 (centres unmarked) [Example 243] | 50 to 200
36 | CC(C)S(=O)(=O)c1cccc(C(C2CC2)N(Cc2cncc(F)c2)C(=O)C2CC2c2ccc(F)cc2)c1 (centres unmarked) [Example 244] | 200 to 1000
37 | CC(C)S(=O)(=O)c1cccc(C(C2CC2)N(Cc2ncccc2F)C(=O)C2CC2c2ccc(F)cc2)c1 (centres unmarked) [Example 245] | 200 to 1000
38 | CC(C)S(=O)(=O)c1cccc(C(C2CC2)N(Cc2ncccc2F)C(=O)C2CC2c2ccc(F)cc2)c1 (centres unmarked) [Example 246] | 200 to 1000
39 | CC(C)S(=O)(=O)c1cccc(C(C2CC2)N(Cc2ccncn2)C(=O)C2CC2c2ccc(F)cc2)c1 (centres unmarked) [Example 247] | 50 to 200
40 | O=C(C1CC1c1ccc(F)cc1)N(Cc1cccnn1)C(c1ccc(S(=O)(=O)C2CC2)cc1)C1CC1 (centres unmarked) [Example 248] | 200 to 1000
41 | O=C(C1CC1c1ccc(F)cc1)N(Cc1cccnn1)C(c1ccc(S(=O)(=O)C2CC2)cc1)C1CC1 (centres unmarked) [Example 249] | 50 to 200
42 | O=C(C1CC1c1ccc(F)cc1)N(Cc1ccc(F)cn1)C(c1ccc(S(=O)(=O)C2CC2)cc1)C1CC1 (centres unmarked) [Example 250] | 200 to 1000

Row | Structure (SMILES) | IC50 [nM]
43 | N#Cc1cccc(C(C2CC2)N(Cc2ncccc2F)C(=O)C2CC2c2ccc(F)cc2)c1 (centres unmarked) [Example 251] | 200 to 1000
44 | N#Cc1cccc(C(C2CC2)N(Cc2ncccc2F)C(=O)C2CC2c2ccc(F)cc2)c1 (centres unmarked) [Example 252] | 50 to 200
45 | CCS(=O)(=O)c1cccc(CN(C(=O)C2CC2c2ccc(F)cc2)C(c2ccc(Cl)cc2)C2CC2)n1 (centres unmarked) [Example 253] | < 50
46 | CSc1cccc(CN(C(=O)C2CC2c2ccc(F)cc2)C(c2ccc(Cl)cc2)C2CC2)n1 (centres unmarked) [Example 254] | 50 to 200
47 | CC(CC(=O)N(Cc1cccnn1)C(c1ccc(OC(F)F)cc1)C1CC1)c1ccccc1C(F)(F)F (centres unmarked) [Example 260] | 50 to 200
48 | CC(CC(=O)N(Cc1cccnn1)C(c1ccc(OC(F)F)cc1)C1CC1)c1ccccc1C(F)(F)F (centres unmarked) [Example 261] | 200 to 1000
49 | CC(CC(=O)N(Cc1cccnn1)C(c1ccc(OC(F)F)cc1)C1CC1)c1ccc(F)cc1 (centres unmarked) [Example 262] | < 50
50 | CC(CC(=O)N(Cc1ccc(C(F)(F)F)nc1)C(c1ccc(OC(F)F)cc1)C1CC1)c1ccccc1S(C)(=O)=O (centres unmarked) [Example 263] | 50 to 200
51 | CC(CC(=O)N(Cc1ccc(F)cn1)C(c1ccc(S(=O)(=O)C(C)C)cc1)C1CC1)c1ccc(F)cc1 (centres unmarked) [Example 264] | < 50
52 | CCS(=O)(=O)c1cccc(C(C2CC2)N(Cc2ccc(F)cn2)C(=O)CC(C)c2ccccc2C(F)(F)F)c1 (centres unmarked) [Example 265] | 50 to 200
53 | CCS(=O)(=O)c1ccc(C(C2CC2)N(Cc2ccc(F)cn2)C(=O)CC(C)c2ccccc2C(F)(F)F)cc1 (centres unmarked) [Example 269] | 50 to 200
54 | CC(CC(=O)N(Cc1ccc(F)cn1)C(c1ccc(F)cc1)C1CCCO1)c1ccc(F)cc1 (centres unmarked) [Example 270] | 50 to 200
55 | CC(CC(=O)N(Cc1ccc(F)cn1)C(c1ccc(F)cc1F)C1CCN(C)CC1)c1ccc(F)cc1 (centres unmarked) [Example 271] | 200 to 1000
56 | CC(CC(=O)N(Cc1cccc[n+]1[O-])C(c1ccc(Cl)cc1)C1CC1)c1ccc(F)cc1 (centres unmarked) [Example 272] | 50 to 200
57 | CC(c1ccc(Cl)cc1)N(C(=O)CS(=O)(=O)c1ccc(F)cc1)C1CC2CCC(C1)N2C (centres unmarked) [Example 280] | 200 to 1000
58 | O=C(CS(=O)(=O)c1ccccc1)N(Cc1ccc(C(F)(F)F)nc1)C(c1ccc(F)cc1)C1CCCO1 (centres unmarked) [Example 282] | 50 to 200
59 | CC(C)C(c1ccc(F)cc1)N(CCC1CCNCC1)C(=O)CS(=O)(=O)c1ccc(F)cc1 (centres unmarked) [Example 284] | 200 to 1000
60 | CN1CCC(C(c2ccc(F)cc2F)N(Cc2ccc(F)cn2)C(=O)CS(=O)(=O)c2ccc(F)cc2)CC1 (centres unmarked) [Example 287] | 200 to 1000
61 | CC(c1ccc(S(C)(=O)=O)cc1)N(Cc1ccc(C(F)(F)F)nc1)C(=O)C(C)(C)S(=O)(=O)c1ccccc1 (centres unmarked) [Example 288] | 1000 to 2000
62 | O=C(CS(=O)(=O)c1ccc(F)cc1)N(Cc1ccc(F)cn1)C(c1ccc(Cl)cc1)C1CC1 (centres unmarked) [Example 290] | 50 to 200
